In patent publication US6512003B2, “Synthetic spiroketal pyranes as potent anti-cancer agents and use” (Parker Hughes Institute, priority 1998, dated 2003):

What was measured:
[1] = system: human BT-20 breast cancer cells; assay: Apoptosis of breast cancer cells by transmission electron microscopy; format: cell-based; details: BT-20 cells, FIG. 6
Experimental: (§1) The effects of spiroketal pyrans on the survival of human breast cancer cells were examined in vitro. Cells were incubated at 37° C. for the indicated time periods with the title compounds. At the end of the incubation, cells were washed twice with PBS and fixed in 2% paraformaldehyde and examined by microscopy.

[2] = system: human breast cancer cells; assay: Confocal laser scanning microscopy of microtubules (alpha-tubulin immunofluorescence) and mitotic index; format: cell-based; set-up: microtubule organization and cell morphology: dose or concentration left out as unconfirmed; details: for microtubule organization and cell morphology: confocal microscopy, FIG. 7
Experimental: as §1
The effects of SPIKET-P1 on human breast cancer cells was also examined using confocal laser scanning microscopy^14. After fixing, the cells were permeabilized and non-specific binding sites were blocked with 2.5% BSA in PBS containing 0.1% Triton X-100 for 30 minutes. Tubulin expression was examined by immunofluorescence using a monoclonal antibody against α-tubulin (Sigma Chemical Co, St. Louis, Mo.) at a dilution of 1:1000 and an lanti-mouse IgG conjugated to FITC. Cells were washed in PBS and counterstained with toto-3 (Molecular Probes Inc., Eugene, Oreg.) for 10 minutes at a dilution of 1:1000. Cells were washed again with PBS and the coverslips were mounted with Vectashield (Vector Labs, Burlingame, Calif.) and viewed with a confocal microscope (Bio-Rad MRC 1024) mounted in a Nikon Labhophot upright microscope.
Digital images were saved on a Jaz disk and processed with Adobe Photoshop software (Adobe Systems, Mountain View, Calif.).
Vehicle-treated control cells are adherent with a well organized microtubule cytoskeleton, seen in the control (FIG. 7A) in green. […] Additionally, membrane blebbing and nuclear fragmentation was observed. Large vacuoles were present within treated cells. SPIKET-P-1 also affected the mitotic index, 2.25% of control cells were in mitosis whereas 0.0% of treated cells were in mitosis (23/1024 vs 0/1000, respectively).

[3] = system: tubulin; details: cited from earlier work

OC1CC(CCOCc2ccccc2)OC2(C1)CC(O)CC(CCOCc1ccccc1)O2 (stereo not shown) [NP-25, 1,13-dibenzyloxy-5,9-dihydroxy-spiroketal]
induction of apoptosis [1]: induce apoptosis in human breast cancer cells

OC[C@H]1CCCC2(CCC[C@H](CO)O2)O1 [SPIKET-P1, [(2R,8R)-8-(hydroxymethyl)-1,7-dioxaspiro[5,5]undec-2-yl]methan-1-ol]
induction of apoptosis [1]: induce apoptosis in human breast cancer cells
microtubule organization and cell morphology [2]: destruction of the microtubule organization, membrane blebbing, and nuclear fragmentation consistent with apoptosis
microtubule organization and cell morphology ([2]; listed as SPA-1): fewer, less organized microtubules
mitotic index (cells in mitosis) ([2]; treated cells 0/1000, control cells 2.25% (23/1024)): 0.0%

c1ccc(COC[C@H]2CCCC3(CCC[C@H](COCc4ccccc4)O3)O2)cc1 [SPIKET-P1-P, Benzyl-protected SPIKET-P1]
induction of apoptosis [1]: induce apoptosis in human breast cancer cells

Spongistatin
inhibition of binding of vinc alkaloids / colchicin to tubulin [3]: inhibit the binding of vinc alkaloids (but not colchicin) to tubulin
